Laboratory results from patent US20260327211A1, “MODULATORS OF A POTASSIUM CHANNEL AND OF TRPV1 CHANNEL AND USES THEREOF” (Bsense Bio Therapeutics Ltd., priority 2023, published 2026).
Read-outs that look alike come from different tables or passages of the source.

Legend:
MIA-OA rats = assay: Monosodium iodoacetate-induced osteoarthritis (MIA-OA) pain model; assay type: in vivo, rat
Experimental: All animal experiments were carried out according to the Guide for the Care and Use of Laboratory Animals (2011 edition) and approved by the Israel National Institutional Animal Care and Use Committee (IACUC). Young adult male SD rats (Envigo RMS, Israel), were used for in vivo efficacy: Spared Nerve Injury (SNI), Distal Tibial Injury (DTI) and Post-operative Pain (POP), 200-220 grams, Chronic Post-Ischemia Pain (CPIP) 275-325 grams, Monosodium iodoacetate-induced osteoarthritis (MIA-OA) 180-220 grams; for in vivo safety: 200-250 grams at study initiation. […] The health status of the animals used in this study was examined upon their arrival. Only animals in good health were acclimatized to laboratory conditions and were used in the studies. All studies were performed following at least five days of animal acclimation. During acclimation and throughout the entire study duration, animals were housed within a limited-access rodent facility and kept in groups with a maximum of 2-3 rats per polypropylene cage. The cages were fitted with solid bottoms and filled with sterile wood shavings as bedding material. Animals were provided ad libitum with a commercial, sterile rodent diet and had free access to drinking water that was supplied to each cage via polyethylene bottles with stainless steel sipper tubes. A feed lot analysis of the diet batch used in the study was included in the archives with the study data. Water was monitored periodically. Plastic cylinders for playing and hiding and wooden balls or sticks were added to the cages for environmental enrichment.
Monosodium iodoacetate-induced osteoarthritis (MIA-OA): The animals were anaesthetized using an Isoflurane+O2 mixture. Then 50 μl of MIA at a concentration of 60 mg/mL was injected into the right knee joint using a 30 G needle. On study days 13 and 14 following MIA injection, the animals' dynamic weight bearing and response to von Frey filaments were measured.
Mechanical Allodynia (Von Frey): The rats were placed in an enclosure and positioned on a metal mesh surface but allowed to move freely. […]

[1] = CYP inhibition / time-dependent inhibition, CYP3A4_Testosterone; assay type: in vitro ADME; settings: human, liver microsomes, role: inhibitor, substrate testosterone
Experimental: (§1) The time-dependent inactivation potency of the test compound to CYP enzymatic activities was assessed by the pre-incubation of the human liver microsomes with the test compound in the presence and absence of NADPH, followed by the incubation with the discrete marker substrates, as follows.
(§2) Pre-incubation with human liver microsomes (HLMs): The TDI inactivation potency on CYP enzymatic activities was evaluated through pre-incubation with HLMs (Corning). A liver microsome mixture at a concentration of 0.1 mg/mL, and the test compound at 8 different concentrations (0, 0.05, 0.165, 0.5, 1.65, 5.0, 16.5, or 50.0 μM) was warmed at 37° C. for 10 minutes. Concurrently, a set of known time-dependent inactivators was also prepared in duplicate for comparison. Following this, NADPH (1.0 mM) was added to one group (Group 1), and an equal volume of potassium phosphate buffer to the second group (Group 2), marking the beginning of a 30-minute pre-incubation at 37° C.
(§3) Incubation: After pre-incubation, the marker substrate, or marker substrate plus NADPH was added to the mixture, thereby initiating the incubation. The duration of the incubation was dependent on the type of CYP isoform being evaluated. For example, with the CYP3A isoform, the mixture was incubated over 3 minutes utilizing midazolam as the marker substrate (2.0 μM), verapamil as the standard inactivator (3.5 μM).
(§4) Termination of Reaction: Following the incubation, ice-cooled acetonitrile containing the internal standard (IS) was added to halt the reactions. Metabolites generated from the marker substrates were then measured via LC-MS/MS, assessed based on peak area ratios of the analyte to IS.

adrenergic β2 = target: T1, adrenergic β2 (Homo sapiens, UniProt P07550); assay: Functional selectivity panel, adrenergic β2; assay type: biochemical
T1 construct: Eurofins DiscoverX, USA
Experimental: A broad panel of 78 recombinant targets was tested for pharmacologic activity in vitro through a variety of functional assays (Eurofins DiscoverX, USA), as part of the National Institute of Neurological Disorders and Stroke (NINDS) Preclinical Screening Platform for Pain (PSPP) program. The biological targets for the in vitro profiling have been selected based on avoiding opioid receptor stimulation and targets known to be associated with adverse events or targeted by drugs of abuse. […] For each test, a reference compound was evaluated at the target of interest as a positive control.

[2] = CYP inhibition / time-dependent inhibition, CYP3A4_Midazolam; assay type: in vitro ADME, human; settings: human, liver microsomes, role: inhibitor
Experimental: as §1, §2, §3, §4

CYP2D6 = target: T2, CYP2D6 (Homo sapiens, UniProt P10635); assay: CYP inhibition / time-dependent inhibition, CYP2D6_Dextromethorphan; assay type: in vitro ADME; settings: role: inhibitor
T2 construct: pre-incubation of the human liver microsomes with the test compound; tissue Corning; host or cells: human liver microsomes
Experimental: as §1, §2, §3, §4

T2 sequence (P10635 whole entry): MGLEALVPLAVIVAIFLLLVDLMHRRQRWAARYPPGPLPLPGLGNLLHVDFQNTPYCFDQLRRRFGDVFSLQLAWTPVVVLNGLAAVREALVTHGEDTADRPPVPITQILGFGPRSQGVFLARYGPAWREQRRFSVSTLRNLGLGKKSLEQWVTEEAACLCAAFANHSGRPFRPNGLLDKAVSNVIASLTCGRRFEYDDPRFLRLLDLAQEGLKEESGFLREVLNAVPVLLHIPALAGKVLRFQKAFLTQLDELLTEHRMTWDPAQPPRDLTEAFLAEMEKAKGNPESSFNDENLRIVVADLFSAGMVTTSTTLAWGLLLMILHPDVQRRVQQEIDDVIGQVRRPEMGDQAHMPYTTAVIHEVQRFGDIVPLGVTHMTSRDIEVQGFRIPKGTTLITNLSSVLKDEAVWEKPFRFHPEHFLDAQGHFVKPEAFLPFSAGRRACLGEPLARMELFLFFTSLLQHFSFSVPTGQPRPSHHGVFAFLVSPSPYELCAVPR
T1 sequence (P07550 whole entry): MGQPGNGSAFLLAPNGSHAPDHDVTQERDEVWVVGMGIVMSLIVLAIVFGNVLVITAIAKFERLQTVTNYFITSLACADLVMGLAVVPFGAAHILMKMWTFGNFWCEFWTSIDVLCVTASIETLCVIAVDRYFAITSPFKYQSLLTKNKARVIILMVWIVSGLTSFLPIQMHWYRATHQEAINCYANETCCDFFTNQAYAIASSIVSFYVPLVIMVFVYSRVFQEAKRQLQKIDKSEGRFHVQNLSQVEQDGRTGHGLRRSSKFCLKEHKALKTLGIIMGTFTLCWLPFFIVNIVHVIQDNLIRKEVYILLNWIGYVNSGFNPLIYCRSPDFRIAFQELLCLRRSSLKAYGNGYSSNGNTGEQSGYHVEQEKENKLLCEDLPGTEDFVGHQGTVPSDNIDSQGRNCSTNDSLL

| IC50 at 0.5 h ([1]; (+)NADPH pre-incubation) [µM] | IC50 at 0.5 h ([1]; (−)NADPH pre-incubation) [µM] | IC50 (adrenergic β2; read-out: adrenergic β2 IC50) [µM] | IC50 ([2]; (+)NADPH pre-incubation, substrate midazolam 2.0 μM, read-out: IC50 (+)NADPH CYP3A4_Midazolam) [µM] | IC50 ([2]; (−)NADPH pre-incubation, substrate midazolam 2.0 μM, read-out: IC50 (−)NADPH CYP3A4_Midazolam) [µM] | IC50 (CYP2D6; (+)NADPH pre-incubation, substrate dextromethorphan, read-out: IC50 (+)NADPH CYP2D6_Dextromethorphan) [µM] | IC50 (CYP2D6; (−)NADPH pre-incubation, substrate dextromethorphan, read-out: IC50 (−)NADPH CYP2D6_Dextromethorphan) [µM] | Compound | Reversal of PWT (MIA-OA rats; 100 mg/kg, 6 hour post-dose) [%] | Pain relief in osteoarthritic pain model (MIA-OA rats; 3-30 mg/kg PO, vs naproxen 30 mg/kg PO) | minimal effective dose (MIA-OA rats; Rattus norvegicus, po, read-out: Effective dose, osteoarthritic pain) [mg/kg] | IC50 ([1]; Table 9, read-out: CYP inhibition IC50 CYP3A-Testosterone) [µM] | IC50 (adrenergic β2; antagonist, read-out: IC/EC50 Adrenergic β2-antagonist) [µM] | IC50 ([2]; Table 9, substrate midazolam, read-out: CYP inhibition IC50 CYP3A-Midazolam) [µM] | IC50 (CYP2D6; Table 9, read-out: CYP inhibition IC50 CYP2D6) [µM] |
| --- | --- | --- | --- | --- | --- | --- | --- | --- | --- | --- | --- | --- | --- | --- |
| 7.36 | 10.1 | 4 | 19.5 | 30.5 | 31.7 | 28.5 | O=C(Cc1cncc(-n2cc(Cl)c3cc(Cl)cc(Cl)c32)c1)N[C@@H]1COC[C@H]1O [Compound 661] | 33 |  |  |  |  |  |  |
|  |  |  |  |  |  |  | O=C(Cc1nccc(-n2cc(Cl)c3cc(Cl)cc(Cl)c32)n1)NC1COCC1O (centres unmarked) [Compound 760] |  | superior in both effect and duration to high dose of naproxen | 3 to 30 | 19.8 | 46 | > 50 | > 50 |
